# Data as given in PubChem BioAssay AID274 (DTP/NCI, 2004).
# Several values for one entry are separate records, joined by “and”; a condition that tells them apart may be missing. Equal values may be shown once. Inconclusive results and toxic doses are left out. Numbered stars: 1 amine (or outer) side, 2 acyl side, 3 side chain; on linkers, the order of the positions; unused ones are H or OH. Bridge positions count the residues as written; N and C are the ends. Square brackets hold non-standard residues; d marks the D form. Peptide text beside a SMILES is read from it. I, II: the chains in the order shown. Actinocin(1to9) = Cc1c2oc3c(C)ccc(C(=O)[*:2])c3nc-2c(C(=O)[*:1])c(N)c1=O; NMeV = CN[CH](C(=O)O)C(C)C; Aze = O=C(O)[CH]1CCN1; Sar = CNCC(=O)O
# System: BDF1 mice, Lewis lung carcinoma iv, survival T/C
# Experiment: NCI In Vivo Anticancer Drug Screen. Data for tumor model Lewis Lung Carcinoma (intravenous) in B6D2F1 (BDF1) mice
# Conditions: endpoint: median survival time, higher = longer survival
# Description: The antitumor activity of compounds was measured in mice bearing transplantable tumors. Survival or tumor size were measured and the results are expressed as the measurement made in the treated group (T) divided by the measurement made in the vehicle treated control group (C). The tumor model used in this assay is Lewis Lung Carcinoma (intravenous) in B6D2F1 (BDF1) mice
# [1] = dose: 25.0 mg/kg/injection, schedule: Q01DX009 (ip), vehicle: Klucel (hydroxypropylcellulose) (HPC)
# [2] = dose: 50.0 mg/kg/injection, schedule: Q01DX009 (ip), vehicle: Klucel (hydroxypropylcellulose) (HPC)
# [3] = dose: 100.0 mg/kg/injection, schedule: Q01DX009 (ip), vehicle: saline
# [4] = dose: 200.0 mg/kg/injection, schedule: Q01DX009 (ip), vehicle: saline
# [5] = dose: 3.12 mg/kg/injection, schedule: Q01DX009 (ip), vehicle: Klucel (hydroxypropylcellulose) (HPC)
# [6] = dose: 6.25 mg/kg/injection, schedule: Q01DX009 (ip), vehicle: Klucel (hydroxypropylcellulose) (HPC)
# [7] = dose: 12.5 mg/kg/injection, schedule: Q01DX009 (ip), vehicle: Klucel (hydroxypropylcellulose) (HPC)
# [8] = dose: 25.0 mg/kg/injection, schedule: Q01DX009 (ip), vehicle: saline
# [9] = dose: 50.0 mg/kg/injection, schedule: Q01DX009 (ip), vehicle: saline
# [10] = dose: 25.0 mg/kg/injection, schedule: Q01DX009 (ip), vehicle: saline with Tween-80
# [11] = dose: 50.0 mg/kg/injection, schedule: Q01DX009 (ip), vehicle: saline with Tween-80
# [12] = dose: 100.0 mg/kg/injection, schedule: Q01DX009 (ip), vehicle: saline with Tween-80
# [13] = dose: 6.25 mg/kg/injection, schedule: Q01DX009 (ip), vehicle: saline
# [14] = dose: 12.5 mg/kg/injection, schedule: Q01DX009 (ip), vehicle: saline
# [15] = dose: 100.0 mg/kg/injection, schedule: Q01DX009 (ip), vehicle: Klucel (hydroxypropylcellulose) (HPC)
# [16] = dose: 12.5 mg/kg/injection, schedule: Q01DX009 (ip), vehicle: saline with Tween-80
# [17] = dose: 6.25 mg/kg/injection, schedule: Q01DX009 (ip), vehicle: saline with Tween-80
smiles,measurement,setting,value
"Cc1c2oc3c(C)ccc(C(=O)NC4C(=O)NC(C(C)C)C(=O)N5CCCC5C(=O)N(C)CC(=O)N(C)C(C(C)C)C(=O)OC4C)c3nc-2c(C(=O)NC2C(=O)NC(C(C)C)C(=O)N3CCC3C(=O)N(C)CC(=O)N(C)C(C(C)C)C(=O)OC2C)c(N)c1=O (stereo unspecified) (I: TV[Aze][Sar][NMeV] / II: TVP[Sar][NMeV]; ester I:1-I:C, II:1-II:C; linker I:N-II:N via Actinocin(1to9); configuration not given here)",T/C,"dose: 37.5 micrograms/kg/injection, schedule: Q01DX009 (ip), vehicle: saline + alcohol",105 % of control
same,T/C,"dose: 75.0 micrograms/kg/injection, schedule: Q01DX009 (ip), vehicle: saline + alcohol",113 % of control
same,T/C,"dose: 194.0 micrograms/kg/injection, schedule: Q04DX003 (ip), vehicle: saline + alcohol",92 % of control
same,T/C,"dose: 270.0 micrograms/kg/injection, schedule: Q04DX003 (ip), vehicle: saline + alcohol",95 % of control
same,T/C,"dose: 324.0 micrograms/kg/injection, schedule: Q04DX003 (ip), vehicle: saline + alcohol",105 % of control
same,T/C,"dose: 450.0 micrograms/kg/injection, schedule: Q04DX003 (ip), vehicle: saline + alcohol",104 % of control
same,T/C,"dose: 540.0 micrograms/kg/injection, schedule: Q04DX003 (ip), vehicle: saline + alcohol",105 % of control
same,T/C,"dose: 648.0 micrograms/kg/injection, schedule: Q01DX001 (ip), vehicle: saline + alcohol",94 % of control
same,T/C,"dose: 1080.0 micrograms/kg/injection, schedule: Q01DX001 (ip), vehicle: saline + alcohol",94 % of control
Cc1cc(N(CCOS(C)(=O)=O)CCOS(C)(=O)=O)ccc1C=Nc1ccc(-c2nc(Cc3ccccc3)sc2C)cc1,T/C,[1],117 % of control
same,T/C,[2],87 % of control
O=C(NO)c1ccc(O)c(O)c1,T/C,"dose: 25.0 mg/kg/injection, schedule: Q01DX009 (ip), vehicle: water",100 % of control
same,T/C,"dose: 50.0 mg/kg/injection, schedule: Q01DX009 (ip), vehicle: water",100 % of control
same,T/C,"dose: 100.0 mg/kg/injection, schedule: Q01DX009 (ip), vehicle: water",100 % of control
same,T/C,"dose: 200.0 mg/kg/injection, schedule: Q01DX009 (ip), vehicle: water",108 % of control
same,T/C,"dose: 300.0 mg/kg/injection, schedule: Q01DX009 (ip), vehicle: suspension in saline",117 % of control
same,T/C,"dose: 400.0 mg/kg/injection, schedule: Q01DX009 (ip), vehicle: suspension in saline",114 % of control
same,T/C,"dose: 500.0 mg/kg/injection, schedule: Q01DX009 (ip), vehicle: suspension in saline",122 % of control
Nc1ccc(OC(=O)Oc2ccc(N)cc2)cc1,T/C,[3],102 % of control
same,T/C,[4],113 % of control
C1CCC2OCCOCCOC3CCCCC3OCCOCCOC2C1 (stereo unspecified),T/C,[5],92 % of control
same,T/C,[6],87 % of control
same,T/C,[7],101 % of control
same,T/C,[1],93 % of control
same,T/C,[2],91 % of control
CC[As](=O)(O)CC,T/C,[8],105 % of control
same,T/C,[3],101 % of control
same,T/C,[4],86 % of control
CCC1OCCN1C(C)C (stereo unspecified),T/C,[8],95 % of control
same,T/C,[9],124 % of control
O=[n+]1c2c(n([O-])c3ccccc31)-c1cccc3cccc-2c13,T/C,[10],100 % of control
same,T/C,[11],104 % of control
same,T/C,[12],105 % of control
Cc1c(N)nc([C@H](CC(N)=O)NC[C@H](N)C(N)=O)nc1C(=O)N[C@H](C(=O)N[C@H](C)[C@@H](O)[C@H](C)C(=O)N[C@H](C(=O)NCCc1nc(-c2nc(C(=O)NCCC[S+](C)C)cs2)cs1)[C@@H](C)O)C(OC1OC(CO)C(O)C(O)C1OC1OC(CO)C(O)C(OC(N)=O)C1O)c1cnc[nH]1 (stereo partly specified),T/C,"dose: 2.0 mg/kg/injection, schedule: Q01DX009 (ip), vehicle: saline",113 % of control
same,T/C,"dose: 4.0 mg/kg/injection, schedule: Q01DX009 (ip), vehicle: saline",115 % of control
same,T/C,"dose: 12.0 mg/kg/injection, schedule: Q04DX003 (ip), vehicle: saline",105 % of control and 115 % of control
same,T/C,"dose: 18.0 mg/kg/injection, schedule: Q04DX003 (ip), vehicle: saline",115 % of control (2×) and 116 % of control
same,T/C,"dose: 27.0 mg/kg/injection, schedule: Q04DX003 (ip), vehicle: saline",109 % of control
same,T/C,"dose: 40.0 mg/kg/injection, schedule: Q04DX003 (ip), vehicle: saline",113 % of control
same,T/C,"dose: 60.0 mg/kg/injection, schedule: Q04DX003 (ip), vehicle: saline",115 % of control
O=C(CCN1CC1)Nc1cccc(NC(=O)CCN2CC2)c1,T/C,"dose: 2.5 mg/kg/injection, schedule: Q01DX009 (ip), vehicle: saline with Tween-80",110 % of control
same,T/C,"dose: 5.0 mg/kg/injection, schedule: Q01DX009 (ip), vehicle: saline with Tween-80",106 % of control
same,T/C,"dose: 10.0 mg/kg/injection, schedule: Q01DX009 (ip), vehicle: saline with Tween-80",123 % of control
CC1(C)COCN1COCCOCN1COCC1(C)C,T/C,[13],114 % of control
same,T/C,[14],97 % of control
same,T/C,[8],106 % of control
same,T/C,[9],122 % of control
same,T/C,[3],95 % of control
CO[C@@]12[C@H](COC(N)=O)C3=C(C(=O)C(C)=C(N)C3=O)N1C[C@@H]1N[C@@H]12,T/C,"dose: 0.12 mg/kg/injection, schedule: Q01DX009 (ip), vehicle: saline",101 % of control
same,T/C,"dose: 0.25 mg/kg/injection, schedule: Q01DX009 (ip), vehicle: saline",105 % of control
same,T/C,"dose: 0.5 mg/kg/injection, schedule: Q01DX009 (ip), vehicle: saline",98 % of control
same,T/C,"dose: 1.0 mg/kg/injection, schedule: Q01DX009 (ip), vehicle: saline",101 % of control
Cc1ccc(S(=O)(=O)NC(=O)C2C(=O)CC3(CCCCC3)CC2=O)cc1,T/C,[2],105 % of control
same,T/C,[15],101 % of control
COc1ccc2nc3cc(Cl)ccc3c(NCCNCCNCCNc3c4ccc(Cl)cc4nc4ccc(OC)cc34)c2c1,T/C,[5],99 % of control
same,T/C,[6],103 % of control
same,T/C,[7],89 % of control
same,T/C,[1],97 % of control
COc1cc2c(c(OC)c1O)-c1ccc(OC)c(=O)cc1[C@@H](NC(=O)C(F)(F)F)CC2,T/C,"dose: 0.62 mg/kg/injection, schedule: Q01DX009 (ip), vehicle: Klucel (hydroxypropylcellulose) (HPC)",101 % of control
same,T/C,"dose: 1.25 mg/kg/injection, schedule: Q01DX009 (ip), vehicle: Klucel (hydroxypropylcellulose) (HPC)",87 % of control
same,T/C,"dose: 2.5 mg/kg/injection, schedule: Q01DX009 (ip), vehicle: Klucel (hydroxypropylcellulose) (HPC)",88 % of control
O=C1N(Cl)C(=O)C(c2ccc(Cl)cc2)(c2ccc(Cl)cc2)N1Cl,T/C,[16],101 % of control
same,T/C,[10],96 % of control
same,T/C,[11],103 % of control
same,T/C,[12],101 % of control
same,T/C,"dose: 200.0 mg/kg/injection, schedule: Q01DX009 (ip), vehicle: saline with Tween-80",103 % of control
same,T/C,"dose: 400.0 mg/kg/injection, schedule: Q01DX009 (ip), vehicle: saline with Tween-80",113 % of control
Cc1cc(/C=C/c2cc[n+](C)c3ccccc23)c(O)c2ncccc12,T/C,[17],95 % of control
same,T/C,[16],109 % of control
Cc1ccc[c]([Hg][Cl])c1N=Nc1ccccc1,T/C,"dose: 0.78 mg/kg/injection, schedule: Q01DX009 (ip), vehicle: saline with Tween-80",100 % of control
same,T/C,"dose: 1.56 mg/kg/injection, schedule: Q01DX009 (ip), vehicle: saline with Tween-80",105 % of control
same,T/C,"dose: 3.12 mg/kg/injection, schedule: Q01DX009 (ip), vehicle: saline with Tween-80",90 % of control
same,T/C,[17],115 % of control
same,T/C,[16],94 % of control
O=C1CC2(C(=O)N1CN1CCOCC1)c1ccccc1-c1ccccc12,T/C,[2],94 % of control
same,T/C,[15],98 % of control
same,T/C,"dose: 200.0 mg/kg/injection, schedule: Q01DX009 (ip), vehicle: Klucel (hydroxypropylcellulose) (HPC)",101 % of control
same,T/C,"dose: 400.0 mg/kg/injection, schedule: Q01DX009 (ip), vehicle: Klucel (hydroxypropylcellulose) (HPC)",112 % of control
CCCCc1ccc2nc(NC(=O)OC)[nH]c2c1,T/C,[17],94 % of control
same,T/C,[16],92 % of control
same,T/C,[10],103 % of control
same,T/C,[11],102 % of control
same,T/C,[12],107 % of control
CC(=O)N(C)c1ccc(Nc2cc(C)[nH]c3ccc4ncnc4c23)cc1,T/C,[13],97 % of control
same,T/C,[14],93 % of control
same,T/C,[8],93 % of control
same,T/C,[9],117 % of control
CN(C)CCNc1ccc([N+](=O)[O-])c2sc3ccccc3c(=O)c12,T/C,[17],106 % of control
same,T/C,[16],109 % of control and 112 % of control
same,T/C,[10],104 % of control
same,T/C,[11],153 % of control
